Results taken from a melting point compilation (Tetko et al.; mined from patent text by program, amines drawn as free bases though some values may be those of a salt).

Row | melting point [°C] | SMILES
1 | 214 to 216 | Nc1ncnc2c1nnn2[C@@H]1C[C@H](CO)[C@@H](O)[C@@H]1F
2 | 139 to 142 | CS(=O)(=O)c1ccc(-n2nc(C(F)(F)F)cc2-c2ccc(-c3ccco3)cc2)cc1Cl
3 | 98 to 99 | CCOc1nn(-c2cc(C(F)(F)F)ccn2)cc1CCCOc1cccc(OC(C)(C)C(=O)O)c1
4 | 210 to 212 | Cc1nc2c(N)nc3ccccc3c2n1CCOCCNC(=O)c1ccccc1
5 | 78 to 82 | CCn1c(=O)n(Cc2ccccc2)c(=O)c2c(Cl)cc(Cl)cc21
6 | 256 to 257 | CC(C)n1nc(-c2sc(N)nc2-c2ccc(F)cc2)ccc1=O
7 | 177 to 179 | CCCN(C(=O)C(F)(F)F)c1ccc(I)cc1
8 | 246 to 248 | COC(=O)c1cc2c3c(cc([N+](=O)[O-])c2[nH]1)N(C(=O)c1cc2cc(OC)c(OC)c(OC)c2[nH]1)CC3CCl (stereo not given)
9 | 127 to 130 | CC(=O)Nc1ccc(OC/C=C(\C)C=O)cc1
10 | 152 to 154 | COc1ccc(CNCC(O)COc2cccc3[nH]c4ccccc4c23)c(OC)c1 (stereo not given)
11 | 120 to 121 | CCOC(=O)c1cn(Cc2cccnc2)nc1OCc1cccnc1
12 | 190 to 191 | O=C(N[C@H](Cc1cccc(C(F)(F)F)c1)[C@@H](O)c1ccc(F)cc1)C1CCCCC1 (racemic)
13 | 127 to 130 | O=C(NCC1CC1)NCC1CC1
14 | 140 to 142 | CCCc1nc2c(N)nc3ccccc3c2n1CCCC(C)N(OC)C(C)=O (stereo not given)
15 | 43 to 46 | Cc1ccccc1-c1ccc2c(c1)CN(CCNC(=O)C1CCCC1)C(N)=N2
16 | 204 to 206 | CS(=O)(=O)c1ccc(-n2cc(-c3ccc4ccccc4c3)nc2-c2ccc(Cl)cc2)cc1
17 | 135 to 140 | O=C(O)CCCCNS(=O)(=O)c1ccc(N2CCCCCC2)cc1
18 | 233 | Sc1nc2ccccc2n1Cc1cc(Cl)cc(Cl)c1

Row | melting point [°C] | SMILES
19 | 109 | CN(CCNc1ccc([N+](=O)[O-])cc1)S(C)(=O)=O
20 | 126 to 128 | O=C1c2cc([N+](=O)[O-])ccc2SC12CC2
21 | 175 to 180 | C#CC[C@H](c1nc2cc(Cl)ccc2c(=O)n1Nc1ccccc1)N(CCCN)C(=O)c1ccc(C)c(F)c1F
22 | 193 | Cc1nc2cc(C(c3ccccc3)n3ccnc3)ccc2n(N)c1=O (stereo not given)
23 | 132 to 133 | CCC(CC)(CCCCS(N)(=O)=O)COc1nn2ncnc2cc1C
24 | 155 to 156 | Cc1ccc(S(=O)(=O)Nc2cnc(C3OCCO3)cc2C)cc1
25 | 122 to 126 | CCCCc1nc2cnc3ccccc3c2n1CCCCSc1ccc(F)cc1F
26 | 240 to 242 | Cc1cccc(NC(=O)Nc2cccc3c2C2CC(O)CCN2C3=O)n1 (stereo not given)
27 | 174 to 176 | CC(=O)N=C1C(OC(C)=O)=C(NC(C)=O)C2CC(=O)CC1C2NC(C)=O (stereo not given)
28 | 229 | CCOC(=O)Cn1c2c([nH]c(=O)c1=O)CCC1=C2C=C(n2ccc(N3CCN(c4ccc([N+](=O)[O-])cc4)CC3)c2)CC1
29 | 286 to 288 | CC1(C)CC(=O)C2=C(C1)NC1=C(C(=O)CC(C)(C)C1)C2c1cccc(-n2ccnc2)c1
30 | 253 to 257 | CC(c1oc2ccccc2c(=O)c1-c1cccc(F)c1)n1nc(-c2cc(F)c(O)c(F)c2)c2c(N)ncnc21 (stereo not given)
31 | 107 to 108 | ClCc1coc(C=C(c2ccccc2)c2ccccc2)n1
32 | 82 | COc1ccc(S(=O)(=O)N(Cc2cccnc2)c2c(C(=O)O)cc(C)cc2-c2ccco2)cc1
33 | 97 to 98 | COC(=O)c1cn(Cc2ccc(OCc3ccccc3)cc2)cc1-c1ccccc1
34 | 139 to 140 | COCCn1cc(C2CCN(CCOc3ccccc3C(=O)O)CC2)c2ccccc21
35 | 182 to 183 | CNCc1coc(-c2cccc(C3=Nc4ccc(-n5cccc5)cc4NC(=O)C3)c2)n1

Continued, compound first:

Row | SMILES | melting point [°C]
36 | O=[N+]([O-])c1ccc2ncnc(Nc3cc(Cl)c(Cl)cc3F)c2c1 | 270 to 271
37 | COC(=O)c1ccc(C(C)=O)o1 | 101 to 102
38 | COc1cc(C)cc2nc(S(=O)(=O)Nc3cc(C)cnc3F)nn12 | 262 to 264
39 | CCOC(=O)CC(=O)c1cc(F)c(S(=O)CC)nc1Nc1ccc(F)cc1F (stereo not given) | 115 to 116
40 | N#Cc1ccc(-c2ccc(O)c(C(F)(F)F)c2)cc1 | 201 to 203
41 | CCCCC(=O)c1ccc(Cl)c(Cl)c1 | 40 to 41
42 | Cc1ccccc1C(=O)CN1C(=O)C(NC(=O)Nc2cccc(C(=O)O)c2)N=C(c2ccccc2F)c2cccc(C)c21 (stereo not given) | 168 to 176
43 | CCn1c(Oc2cccc(NC=O)c2)nnc1[C@@H](C)NS(=O)(=O)c1ccc(Cl)c(Cl)c1 | 168 to 170
44 | CCOP(=O)(CNc1cc(Oc2ccc(C(F)(F)F)cn2)ccc1[N+](=O)[O-])OCC | 74 to 76
45 | O=c1[nH]c2cc(Cl)ccc2c(NS(=O)(=O)c2ccccc2)c1-c1ccccc1 | 268
46 | CCCCCCCCCCCCCCCCCNC(=O)N(C)CC(O)C(O)C(O)C(O)CO (stereo not given) | 94 to 96
47 | CON=C(c1ccccc1COc1cc(C)ccc1C)C1OCCO1 | 136 to 137
48 | Cc1ccc(Oc2ccc(C(F)(F)F)cc2Cl)cc1C(=O)O | 113
49 | O=CC(=Cc1ccc(O)cc1)C(C=O)=Cc1ccc(O)cc1 | 244 to 246
50 | O=C(OO)c1cccc(Cl)c1 | 127 to 129
51 | Cc1c(Cc2ccc(Cl)cc2)cccc1[N+](=O)[O-] | 84 to 85
52 | O=C(NCCCn1cncn1)Nc1cccc(C(F)(F)F)c1 | 97 to 99
53 | OC1CCCc2nc3cc(Cl)ccc3c(NCc3ccccc3)c21 (stereo not given) | 163
54 | CCOc1ccc(Oc2ccc(OCc3cc(F)ccc3F)cc2)c(N)c1 | 72 to 73.5
55 | O=[N+]([O-])C=C(NCc1cccnc1)N1CCCCC1 | 106 to 108
56 | NNC1NS(=O)(=O)c2ccccc21 (stereo not given) | 249
57 | O=S1(=O)c2ccccc2C(CCCl)(CCCl)c2ccccc21 | 186 to 190

Row | SMILES | melting point [°C]
58 | CC(C)(C)c1cc(C[Si](C)(C)C)cc(C(C)(C)C)c1S | 100 to 101
59 | COc1ccc(OC)c(C(=O)/C=C/c2ccc3c(c2)OCO3)c1 | 101
60 | Cc1nc(N2CCN(Cc3ccc(F)cc3)C2=O)sc1C(=O)NCc1csc(C(C)C)n1 | 170 to 172
61 | COc1cc(SC(C)C)cc(C#N)c1N | 81 to 82
62 | Cc1cc(N2CC=C(C(=O)OC(C)C)CC2)c2cccc(Br)c2n1 | 130 to 131
63 | CC(C)CCN1C(=O)C2(COc3cc4c(cc32)OCCO4)c2c1ccc1ncsc21 (stereo not given) | 169 to 171
64 | COc1ccccc1-c1c(CC(=O)O)oc(=O)c2ccccc12 | 143 to 144
65 | O=C(O)c1cccc2ccc3c4ccccc4[nH]c3c12 | 343
66 | O=C(Nc1ccccc1)C1=C(N2CCOCC2)COC1=O | 205 to 206
67 | COC(=O)C1=Cc2cc(-c3ccc(C(C)C)cc3)ccc2S(=O)(=O)CC1 | 142 to 144
68 | C=C(C)COc1c(C)c(CCC(O)CC(=O)CC(=O)OCC)c2c(c1C)CC(C)(C)O2 (stereo not given) | 53.5 to 55
69 | O=c1c2cccnc2c(-c2ccccc2)cn1Cc1ccccc1 | 166 to 167
70 | CCOCc1nc2c(N)nc3c(c2n1CC1(O)CCCC1)NCCC3 | 207 to 208
71 | O=Cc1c(O)ccc2c1OCCO2 | 62 to 63
72 | Cc1nc2c(-c3ccc(N4CCN(C)CC4)cc3)cnn2c(N)c1-c1cccc(Cl)c1 | 113 to 115
73 | Cc1sc(C(F)(F)F)nc1O | 108 to 110
74 | CCOC(=O)C(Cc1ccc(C(C)C)cc1)C(=O)N[C@@H](CC(C)C)C(=O)OC(C)(C)C (stereo not given in full) | 68 to 73
75 | CC(=O)N[C@@H](CSC(C)=O)C(=O)NCCSC(=O)c1ccccc1 | 166 to 168
76 | CC(C(=O)O)c1ccc(-c2ccc(F)cc2)c(F)c1 (stereo not given) | 118 to 119
77 | COc1ccc(-n2nc(OC(C)C)cc2-c2ccc(OCCNC(N)=O)cc2)cn1 | 120
78 | COC(=O)CCc1cc2cc(Cl)ccc2n1S(=O)(=O)c1ccc(C(F)(F)F)cc1 | 82 to 86
79 | COc1ccc(S(=O)(=O)NC(C)(C)C(=O)NO)cc1 | 122 to 125

Row | SMILES | melting point [°C]
80 | Cn1c(=O)[nH]c(=O)c2c1ncn2CC#N | 285 to 287
81 | O=C(O)c1cc(-c2cccc(C(F)(F)F)c2)c(=O)n2ccccc12 | 228 to 229
82 | COC(=O)CCC(=O)Oc1c(C)n(Cc2ccccc2)c2c(OCc3ccccc3)nncc12 | 189 to 190
83 | O=C(O)C1c2ccccc2COc2ccc(C(F)(F)F)cc21 (stereo not given) | 258 to 260
84 | COc1cc2nc(C(N)=O)sc2cc1OC | 211 to 212
85 | O=C(O)c1cc(-n2c(-c3ccccc3)cc3c2CCc2cc(Cl)ccc2-3)ccc1O | 249 to 251
86 | CCOC(=O)COc1ccc2c(C)c(CCN(CC)CC)c(=O)oc2c1Cl | 147 to 148
87 | CC(C)(C)OC(=O)Nc1ccc2ccc(C#N)cc2c1 | 126 to 128
88 | N#Cc1ccc2c(c1)C1OC1C1(CCCCC1)O2 (stereo not given) | 222 to 225
89 | COC=CC=C(C#N)C#N | 74 to 76
90 | CCCCOC(=O)C(NC(=O)OCC(Cl)(Cl)Cl)n1cnc2ncncc21 (stereo not given) | 114 to 116
91 | CCOCCOc1ccc(CN/C=C2\C(=O)NC(=O)c3ccc(Br)cc32)cc1O | 179 to 180
92 | COc1ccc(NC(=O)c2ccc(C#N)cc2)cc1 | 155 to 157
93 | Cc1nc(-n2ccc(OCC3CCCO3)cc2=O)sc1C(=O)NCc1ccccc1 (stereo not given) | 181 to 183
94 | CN(C)C(=O)c1cc(=O)c2ccsc2s1 | 126
95 | Oc1c(-c2ccccc2)nn(Cc2ccccc2)c1-c1ccccc1 | 194 to 195
96 | COc1cc(CN2CCN(C(=O)c3ccc4c(c3)C(=O)C3(CC3)O4)CC2)cc(OC)c1OC | 196 to 198
97 | COc1ccc2c(c1)c(-c1cc3c(OC)ccnc3[nH]1)cn2C | 288 to 289
98 | COc1cc2c(cc(C(=O)OCc3ccccc3)n2CCC#N)c(C)c1C | 140
99 | CC(=NOCCOc1ccc(CC2OC(=O)NC2=O)cc1)c1ccc(-c2ccccc2)cc1 (stereo not given) | 177 to 179
100 | CC(C)OC(=O)c1cc(Cl)c(Cl)c(Cl)n1 | 105 to 106
